Reference: ChEMBL document CHEMBL1201862, “PubChem BioAssay data set” (2004)
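Test compounds were applied to cells in 96-well plates for 48 hours at 5 doses. Abbreviation: GI50, concentration required for 50% inhibition of growth.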 Activity calls are given as the source filed them. Rule as the data show it: active = GI50 up to about 1.1 µM and inactive = higher.

Columns and labels:
Assay in all cases: inhibition of tumour cell growth, NCI panel, 48 h
HOP-62 = tested on: HOP-62
HCT-15 = tested on: HCT-15
ACHN = tested on: ACHN
M14 = tested on: M14
UO-31 = tested on: UO-31
IGROV-1 = tested on: IGROV-1
DU-145 = tested on: DU-145
RXF 393 = tested on: RXF 393
A549 = tested on: A549
PC-3 = tested on: PC-3
OVCAR-5 = tested on: OVCAR-5
OVCAR-3 = tested on: OVCAR-3
MDA-N = tested on: MDA-N
COLO 205 = tested on: COLO 205
MCF7 = tested on: MCF7
LOX IMVI = tested on: LOX IMVI
SF-539 = tested on: SF-539
Malme-3M = tested on: Malme-3M
NCI-H460 = tested on: NCI-H460
CAKI-1 = tested on: CAKI-1
SK-OV-3 = tested on: SK-OV-3
TK-10 = tested on: TK-10
KM12 = tested on: KM12
HCT-116 = tested on: HCT-116
Hs-578T = tested on: Hs-578T
NCI-H522 = tested on: NCI-H522
786-0 = tested on: 786-0
UACC-257 = tested on: UACC-257
UACC-62 = tested on: UACC-62
MDA-MB-231 = tested on: MDA-MB-231
SF-268 = tested on: SF-268
NCI-H226 = tested on: NCI-H226
EKVX = tested on: EKVX
NCI-H23 = tested on: NCI-H23
NCI/ADR-RES = tested on: NCI/ADR-RES
BT-549 = tested on: BT-549
SF-295 = tested on: SF-295
SNB-19 = tested on: SNB-19
HCC 2998 = tested on: HCC 2998
SK-MEL-5 = tested on: SK-MEL-5
SNB-75 = tested on: SNB-75
SN12C = tested on: SN12C
HT-29 = tested on: HT-29
MDA-MB-435 = tested on: MDA-MB-435
SK-MEL-28 = tested on: SK-MEL-28
U-251 = tested on: U-251
SK-MEL-2 = tested on: SK-MEL-2
OVCAR-4 = tested on: OVCAR-4
RPMI-8226 = tested on: RPMI-8226
SR = tested on: SR
HL-60 = tested on: HL-60
HOP-92 = tested on: HOP-92
OVCAR-8 = tested on: OVCAR-8
MOLT-4 = tested on: MOLT-4
K562 = tested on: K562
T47D = tested on: T47D
CCRF-CEM = tested on: CCRF-CEM
SW-620 = tested on: SW-620

NC(N)=NC(P(=O)(O)O)P(=O)(O)O
GI50 (HOP-62): > 100 µM (inactive)
GI50 (HCT-15): > 100 µM
GI50 (ACHN): > 100 µM (inactive)
GI50 (M14): > 100 µM (inactive)
GI50 (UO-31): > 100 µM (inactive)
GI50 (IGROV-1): > 100 µM (inactive)
GI50 (DU-145): > 100 µM (inactive)
GI50 (RXF 393): > 100 µM (inactive)
GI50 (A549): > 100 µM (inactive)
GI50 (PC-3): > 100 µM (inactive)
GI50 (OVCAR-5): > 100 µM (inactive)
GI50 (OVCAR-3): > 100 µM (inactive)
GI50 (MDA-N): > 100 µM (inactive)
GI50 (COLO 205): > 100 µM (inactive)
GI50 (MCF7): > 100 µM (inactive)
GI50 (LOX IMVI): > 100 µM (inactive)
GI50 (SF-539): > 100 µM (inactive)
GI50 (Malme-3M): > 100 µM (inactive)
GI50 (NCI-H460): > 100 µM (inactive)
GI50 (CAKI-1): > 100 µM (inactive)
GI50 (SK-OV-3): > 100 µM (inactive)
GI50 (TK-10): > 100 µM (inactive)
GI50 (KM12): > 100 µM (inactive)
GI50 (HCT-116): > 100 µM (inactive)
GI50 (Hs-578T): 0.254 µM (active)
GI50 (NCI-H522): > 100 µM (inactive)
GI50 (786-0): > 100 µM (inactive)
GI50 (UACC-257): > 100 µM (inactive)
GI50 (UACC-62): > 100 µM (inactive)
GI50 (MDA-MB-231): > 100 µM (inactive)
GI50 (SF-268): > 100 µM (inactive)
GI50 (NCI-H226): > 100 µM (inactive)
GI50 (EKVX): > 100 µM (inactive)
GI50 (NCI-H23): > 100 µM (inactive)
GI50 (NCI/ADR-RES): > 100 µM (inactive)
GI50 (BT-549): > 100 µM (inactive)
GI50 (SF-295): > 100 µM (inactive)
GI50 (SNB-19): > 100 µM (inactive)
GI50 (HCC 2998): > 100 µM (inactive)
GI50 (SK-MEL-5): > 100 µM (inactive)

COc1cc(NC(C)CCCN)c2nccc(C)c2c1 (configuration not stated)
GI50 (HOP-62): 17.1 µM (inactive)
GI50 (SNB-75): 14.2 µM (inactive)
GI50 (HCT-15): 21.3 µM
GI50 (ACHN): 26.6 µM (inactive)
GI50 (M14): 18.9 µM (inactive)
GI50 (UO-31): 15.6 µM (inactive)
GI50 (IGROV-1): 16.5 µM (inactive)
GI50 (DU-145): 48.3 µM (inactive)
GI50 (SN12C): 31.4 µM (inactive)
GI50 (HT-29): 31.9 µM (inactive)
GI50 (A549): 55.7 µM (inactive)
GI50 (MDA-MB-435): 16.7 µM (inactive)
GI50 (OVCAR-5): 96.4 µM (inactive)
GI50 (OVCAR-3): 23.1 µM (inactive)
GI50 (MDA-N): 18.9 µM (inactive)
GI50 (COLO 205): 14.3 µM (inactive)
GI50 (MCF7): 16.2 µM (inactive)
GI50 (SF-539): 17.5 µM (inactive)
GI50 (Malme-3M): 20 µM (inactive)
GI50 (NCI-H460): 22.3 µM (inactive)
GI50 (CAKI-1): 21.2 µM (inactive)
GI50 (SK-OV-3): 28.4 µM (inactive)
GI50 (SK-MEL-28): 19.5 µM (inactive)
GI50 (TK-10): 26.8 µM (inactive)
GI50 (U-251): 19.6 µM (inactive)
GI50 (KM12): 17.5 µM (inactive)
GI50 (HCT-116): 15.8 µM (inactive)
GI50 (SK-MEL-2): 19.2 µM (inactive)
GI50 (Hs-578T): 26.8 µM (inactive)
GI50 (NCI-H522): 17.5 µM (inactive)
GI50 (OVCAR-4): 21.8 µM (inactive)
GI50 (786-0): 19 µM (inactive)
GI50 (UACC-62): 19.9 µM (inactive)
GI50 (MDA-MB-231): > 10 µM (inactive)
GI50 (RPMI-8226): 20.9 µM (inactive)
GI50 (SF-268): 24.3 µM (inactive)
GI50 (EKVX): 55.3 µM (inactive)
GI50 (NCI-H23): 38 µM (inactive)
GI50 (NCI/ADR-RES): 11.6 µM (inactive)
GI50 (BT-549): 15.8 µM (inactive)
GI50 (SF-295): 15.3 µM (inactive)
GI50 (SR): 19.7 µM (inactive)
GI50 (SNB-19): 27 µM (inactive)
GI50 (HL-60): 2.81 µM (inactive)
GI50 (HCC 2998): 19.9 µM (inactive)
GI50 (HOP-92): 24.9 µM (inactive)
GI50 (SK-MEL-5): 25.7 µM (inactive)

Cc1ccc(N/C(=C(/C(Cl)=C(Cl)Cl)[N+](=O)[O-])n2nnc3ccccc32)cc1
GI50 (HOP-62): 18.2 µM (inactive)
GI50 (SNB-75): 18.8 µM (inactive)
GI50 (HCT-15): 24.3 µM
GI50 (ACHN): 21.4 µM (inactive)
GI50 (M14): 16.6 µM (inactive)
GI50 (OVCAR-8): 18.8 µM (inactive)
GI50 (UO-31): 16.6 µM (inactive)
GI50 (MOLT-4): 9.64 µM (inactive)
GI50 (SN12C): 20.4 µM (inactive)
GI50 (HT-29): 22 µM (inactive)
GI50 (A549): 19.5 µM (inactive)
GI50 (PC-3): 17.5 µM (inactive)
GI50 (MDA-MB-435): 20.1 µM (inactive)
GI50 (OVCAR-5): 20.1 µM (inactive)
GI50 (OVCAR-3): 16.7 µM (inactive)
GI50 (MDA-N): 18.9 µM (inactive)
GI50 (COLO 205): 15.1 µM (inactive)
GI50 (MCF7): 29.1 µM (inactive)
GI50 (SF-539): 15.2 µM (inactive)
GI50 (Malme-3M): 16.1 µM (inactive)
GI50 (NCI-H460): 18 µM (inactive)
GI50 (CAKI-1): 17.7 µM (inactive)
GI50 (SK-OV-3): 17.1 µM (inactive)
GI50 (SK-MEL-28): 17.5 µM (inactive)
GI50 (K562): 23.6 µM (inactive)
GI50 (KM12): 21.2 µM (inactive)
GI50 (HCT-116): 30 µM (inactive)
GI50 (SK-MEL-2): 17.7 µM (inactive)
GI50 (Hs-578T): 25.8 µM (inactive)
GI50 (OVCAR-4): 18.7 µM (inactive)
GI50 (786-0): 20.8 µM (inactive)
GI50 (UACC-257): 26 µM (inactive)
GI50 (RPMI-8226): 20.2 µM (inactive)
GI50 (SF-268): 18.8 µM (inactive)
GI50 (NCI-H226): 18.5 µM (inactive)
GI50 (T47D): 22.5 µM (inactive)
GI50 (EKVX): 19.1 µM (inactive)
GI50 (NCI-H23): 21.5 µM (inactive)
GI50 (CCRF-CEM): 7.06 µM (inactive)
GI50 (SW-620): 20.7 µM (inactive)
GI50 (NCI/ADR-RES): 27.2 µM (inactive)
GI50 (BT-549): 17.7 µM (inactive)
GI50 (SF-295): 20.1 µM (inactive)
GI50 (SNB-19): 18.3 µM (inactive)
GI50 (HCC 2998): 18.7 µM (inactive)
